Results as given in patent US9416144B2, “Benzoxazine oxazolidinone compound, preparation method and application thereof” (priority 2012, dated 2016).
In brackets after ≈: the same amount, converted by molar mass. Several values for one entry are separate records, joined by “and”; a condition that tells them apart may be missing. Equal entries are not always repeated. Where two headings read alike, the source gives them in different places.

Assays:
[1] = system: Staphylococcus aureus resistant strains (6 strains); assay: In vitro antibacterial activity, MIC by agar double dilution method; type: cell-based; details: clinical isolates
Excerpt: (§1) Experimental method: The agar double dilution method (Antimicrob. Agents and Chemother, 40, 1996, 720-726) was used to determine the minimum inhibitory concentration (MIC) of the series of compounds of the invention and the positive control drug linezolid for the test strains. The multipoint inoculation system (Denley A400) was employed to inoculate the bacteria on the agar plate surface with different concentrations of drugs; inoculation amount on each point was about 10^6 CFU/mL. The plates were incubated at 35° C. for 16 hrs before the results were observed. The lowest drug concentration contained in the Petri dish without bacterial growth was used as the minimum inhibitory concentration (MIC value) of the drug fir that strain.
(§2) Test strains: All the test strains were clinically isolated pathogens which were collected from the Nanjing region, and they were re-identified by routine methods before use. 31 strains of the clinically isolated pathogens were chosen, including 6 strains of Enterococcus, 5 Staphylococcus aureus sensitive strains; 5 Staphylococcus epidermidis sensitive strains; 6 Staphylococcus aureus resistant strains; 5 Staphylococcus epidermidis resistant strains; and 4 Streptococcus pneumoniae resistant strains.
(§3) Compounds to be tested were first added 2 ml of DMSO to help them fully dissolved, then added sterile double distilled water to the desired concentration; to all the Petri dish with added drug liquid were added 20 mL MIT medium which was heat-melted to be liquid-like, to make the final drug concentration in the Petri dish to be 64, 32, 16, 8, 4, 2, 1, 0.5, 0.25, 0.125, 0.0625, and 0.031 μg/mL.
(§4) The positive control group was LZ (linezolid, brand name Zyvox, approved by the FDA in 2000 to be firstly sold in the United States, which is the first and also the only one of oxazolidinone antibacterial drugs allowed to enter clinical application).

[2] = system: Staphylococcus epidermidis resistant strains (5 strains); assay: as above; type: cell-based; details: clinical isolates
Excerpt: as §1, §2, §3, §4

Enterococcus (6 strains) = assay: as above; type: cell-based; details: clinical isolates, 35° C. 16 hrs
Excerpt: as §1, §2, §3, §4

[3] = system: Staphylococcus aureus sensitive strains (5 strains); assay: as above; type: cell-based; details: clinical isolates
Excerpt: as §1, §2, §3, §4

[4] = system: Streptococcus pneumoniae resistant strains (4 strains); assay: as above; type: cell-based; details: clinical isolates
Excerpt: as §1, §2, §3, §4

[5] = system: Staphylococcus epidermidis sensitive strains (5 strains); assay: as above; type: cell-based; details: clinical isolates
Excerpt: as §1, §2, §3, §4

[6] = In vivo pharmacokinetic assays in rats (intragastric and intravenous), plasma Compound 14 by LC-MS/MS; design: species or system SD rats; details: rats
[7] = as above; design: species or system SD rats
Description: Two routes of administration (intragastric administration and intravenous injection) were employed.
(§5) Intragastric administration: Four healthy SD rats, male, weight 200-250 g, were dosed 15 mg/kg; the delivery volume was 10 ml/kg, prepared with 0.5% CMC-Na. The rats were fasted for 12 hrs before administration, free water-drinking. 0.3 ml of venous blood was taken from the posterior venous plexus of rats to heparinized tubes at 0.25, 0.5, 1.0, 2.0, 3.0, 4.0, 5.0, 7.0, 9.0, 24, and 48 hrs after administration, centrifuged at 3500 rpm for 10 mins to separate the plasma, which was then stored at −20° C. for test.
as §5, with “Intravenous injection: Two” for “Intragastric administration: Four”, “200˜250” for “200-250”, “5” for “15”, “DMSO, Tween 80 and deionized water.” for “0.5% CMC-Na.”, “5 min, 15 min, and” for “0.25,”
The concentration of Compound 14 in plasma was determined by liquid chromatography tandem mass spectrometry.
In accordance with the above experimental methods, the inventor has determined the in vivo pharmacokinetic properties of phosphate (ester) disodium salt 37 of Compound 14 in rats.

[8] = male, SD, rat, in vivo, iv, 5 mg/kg, 5 mg/kg Compound 14 intravenous injection, average value
[9] = male, SD, rat, in vivo, po, 15 mg/kg, 15 mg/kg Compound 14 intragastric, average value
[10] = male, SD, rat, in vivo, po, 15 mg/kg, 15 mg/kg Compound 14 intragastric, individual animals No. 15-18
[11] = 5 mg/kg Compound 14 intravenous injection, individual animals No. 19-21, 5 mg/kg
[12] = 15 mg/kg Compound 14 intragastric, individual animals No. 15-18, 15 mg/kg

Q: With `O=C1O[C@@H](CO)[C@@H]2COc3cc(-c4ccc(C(O)CO)nc4)ccc3N12` (stereo partly drawn) [Compound 4, (3R,3aS)-7-(6-(1,2-dihydroxylethyl)pyridin-3-yl)-3-(hydroxylmethyl)-3a,4-dihydrobenzo[b]oxazolo[3,4-d][1,4]oxazin-1(3H)-one] as the molecule, how does the MIC [1] read?
A: The MIC was 0.5 to 1 µg/mL (≈ 1.4 to 2.79 µM).

Q: What about the MIC [2] of the same molecule?
A: Its MIC is 0.5 µg/mL (≈ 1.4 µM).

Q: And the MIC (Enterococcus (6 strains))?
A: The MIC was 1 to 2 µg/mL (≈ 2.79 to 5.58 µM).

Q: And the MIC [3]?
A: Its MIC is 0.5 to 1 µg/mL (≈ 1.4 to 2.79 µM).

Q: And the MIC [4]?
A: Its MIC is 1 to 2 µg/mL (≈ 2.79 to 5.58 µM).

Q: What about the MIC [5] of the same molecule?
A: Its MIC is 0.5 µg/mL (≈ 1.4 µM).

Q: What about the melting point of the same molecule?
A: Its melting point is 150 to 152 °C.

Q: Which results are given for `O=C1O[C@@H](CO)[C@@H]2COc3cc(-c4ccc(N5CCC(O)CC5)nc4)ccc3N12` [Compound 11, (3R,3aS)-3-(hydroxylmethyl)-7-(6-(4-hydroxylpiperidin-1-yl)pyridin-3-yl)-3a,4-dihydrobenzo[b]oxazolo[3,4-d][1,4]oxazin-1(3H)-one]?
A: MIC [1]: 4 µg/mL (≈ 10.1 µM); MIC [2]: 8 µg/mL (≈ 20.1 µM); MIC (Enterococcus (6 strains)): 16 µg/mL (≈ 40.3 µM); MIC [3]: 2 to 4 µg/mL (≈ 5.03 to 10.1 µM); MIC [4]: 2 to 8 µg/mL (≈ 5.03 to 20.1 µM); MIC [5]: 2 to 4 µg/mL (≈ 5.03 to 10.1 µM); melting point: > 198 °C

Q: For `CC(=O)c1ccc(-c2ccc3c(c2)OC[C@H]2[C@H](CO)OC(=O)N32)cn1` [Compound 13, (3R,3aS)-7-(6-acetylpyridin-3-yl)-3-(hydroxylmethyl)-3a,4-dihydrobenzo[b]oxazolo[3,4-d][1,4]oxazin-1(3H)-one], which MIC [1] is on record?
A: The MIC was 2 to 4 µg/mL (≈ 5.88 to 11.8 µM).

Q: What about the MIC [2] of the same molecule?
A: The MIC was 4 to 8 µg/mL (≈ 11.8 to 23.5 µM).

Q: And the MIC (Enterococcus (6 strains))?
A: Its MIC is 2 µg/mL (≈ 5.88 µM).

Q: What about the MIC [3] of the same molecule?
A: Its MIC is 2 to 4 µg/mL (≈ 5.88 to 11.8 µM).

Q: What about the MIC [4] of the same molecule?
A: The MIC was 8 to 16 µg/mL (≈ 23.5 to 47 µM).

Q: And the MIC [5]?
A: Its MIC is 4 µg/mL (≈ 11.8 µM).

Q: And the melting point?
A: The melting point was 199 to 201 °C.

Q: Which results are given for `CN1CC(c2ccc(-c3ccc4c(c3)OC[C@H]3[C@H](CO)OC(=O)N43)cn2)OC1=O` (stereo partly drawn) [Compound 14, (3R,3aS)-3-(hydroxylmethyl)-7-(6-(3-methyl-2-oxazolidin-5-yl)pyridin-3-yl)-3a,4-dihydrobenzo[b]oxazolo[3,4-d][1,4]oxazin-1(3H)-one]?
A: AUC(0-inf) [6, 8]: 1560 ng·h/mL; half-life [6, 8]: 2.51 ± 0.92 h; AUC0-t ([6]; male, SD, rat, in vivo, iv, 5 mg/kg, 5 mg/kg Compound 14 intravenous injection, average value, read-out: AUC0-t): 1540 ± 54 ng·h/mL; MRT ([6]; male, SD, rat, in vivo, iv, 5 mg/kg, 5 mg/kg Compound 14 intravenous injection, average value, read-out: MRT): 0.74 h; AUC(0-inf) ([6]; male, SD, rat, in vivo, iv, 5 mg/kg, 5 mg/kg Compound 14 intravenous injection, individual animals No. 19-21): 1600 ng·h/mL; AUC0-t ([6]; male, SD, rat, in vivo, iv, 5 mg/kg, 5 mg/kg Compound 14 intravenous injection, individual animals No. 19-21, read-out: AUC0-t): 1600 ng·h/mL; MRT ([6]; male, SD, rat, in vivo, iv, 5 mg/kg, 5 mg/kg Compound 14 intravenous injection, individual animals No. 19-21, read-out: MRT): 0.61 h; Vd ([6]; male, SD, rat, in vivo, iv, 5 mg/kg, 5 mg/kg Compound 14 intravenous injection, individual animals No. 19-21, read-out: Vss): 1.9 L/kg; AUC(0-inf) [6, 9]: 2170 ng·h/mL; Cmax [6, 9]: 809 ± 267 ng/mL; Tmax [6, 9]: 1 ± 0.71 h; AUC0-t ([6]; male, SD, rat, in vivo, po, 15 mg/kg, 15 mg/kg Compound 14 intragastric, average value, read-out: AUC0-t): 2070 ± 319 ng·h/mL; MRT ([6]; male, SD, rat, in vivo, po, 15 mg/kg, 15 mg/kg Compound 14 intragastric, average value, read-out: MRT): 2.64 h; half-life [6, 10]: 2.29 h; AUC0-t ([6]; male, SD, rat, in vivo, po, 15 mg/kg, 15 mg/kg Compound 14 intragastric, individual animals No. 15-18, read-out: AUC0-t): 1620 ng·h/mL; MRT ([6]; male, SD, rat, in vivo, po, 15 mg/kg, 15 mg/kg Compound 14 intragastric, individual animals No. 15-18, read-out: MRT): 3.36 h; AUC0-t [6, 11]: 1490 ng·h/mL and 1526 ng·h/mL; AUC0-∞ [6, 11]: 1510 ng·h/mL and 1555 ng·h/mL; CLz [6, 11]: 52 mL/min/kg and 55.2 mL/min/kg and 53.7 mL/min/kg; MRT [6, 11]: 0.79 h and 0.82 h; Vss [6, 11]: 2.62 L/kg and 2.64 L/kg; t1/2 [6, 11]: 1.62 h and 2.46 h and 3.45 h; F (absolute bioavailability) ([6]; 15 mg/kg Compound 14 intragastric vs 5 mg/kg intravenous, dose corrected): 44%; MIC [1]: 0.5 to 1 µg/mL (≈ 1.26 to 2.52 µM); MIC [2]: 0.25 to 1 µg/mL (≈ 0.629 to 2.52 µM); MIC (Enterococcus (6 strains)): 1 to 2 µg/mL (≈ 2.52 to 5.03 µM); MIC [3]: 0.5 to 1 µg/mL (≈ 1.26 to 2.52 µM); MIC [4]: 1 µg/mL (≈ 2.52 µM); MIC [5]: 0.25 to 0.5 µg/mL (≈ 0.629 to 1.26 µM); AUC0-t [7, 12]: 2174 ng·h/mL and 2095 ng·h/mL and 2374 ng·h/mL; AUC0-∞ [7, 12]: 2290 ng·h/mL and 2165 ng·h/mL and 2440 ng·h/mL; Cmax [7, 12]: 474 ng/mL and 766 ng/mL and 878 ng/mL and 1117 ng/mL; MRT [7, 12]: 2.93 h and 2.03 h and 2.23 h; Tmax [7, 12]: 2.00 h and 0.50 h; t1/2 [7, 12]: 1.64 h and 2.34 h and 1.45 h; clearance ([7]; male, SD, rat, in vivo, 5 mg/kg Compound 14 intravenous injection, average value, read-out: CLz (plasma clearance) (converted)): 53.7 mL/min/kg; bioavailability ([7]; male, SD, rat, in vivo, 15 mg/kg, 15 mg/kg Compound 14 intragastric vs 5 mg/kg intravenous, dose corrected, read-out: F (absolute bioavailability)): 44.8%; Vd ([7]; male, SD, rat, in vivo, iv, 5 mg/kg, 5 mg/kg Compound 14 intravenous injection, average value, read-out: Vss (distribution volume)): 2.39 ± 0.42 L/kg; half-life [7, 9]: 1.93 ± 0.45 h; AUC(0-inf) [7, 10]: 1770 ng·h/mL
